# Data taken from patent US8372654B2, “Method for investigating the fate of a test compound or the stateof a biological system by means of NMR of hyperpolarised NMR active nuclei” (GE Healthcare Limited, priority 2001, dated 2013).
# Columns and labels:
# [1] = benzoic acid metabolism study: iv administration to anaesthetised rats, urine collected; assay type: in vivo, rat
# [2] = rat, in vivo, iv, 20 mg/kg
# Protocol: (U-^13C)Paracetamol was administered intravenously at 20 mg/kg (at 0 and 3 hrs) to 4 anaesthetised rats, urine was collected from canulated urethra and bile was collected from canulated bile duct (2 rats only) at 0-3 and 3-6 hours. Bile (3-6 hrs) was extracted with dichloromethane and then fractionated by RP-hplc (C18 Kromasil, 25×1 cm, 5 um) using gradient elution with formic acid in water and formic acid in methanol).
# Several metabolites were collected. […] The isolated material was then dried and an aliquot re-analysed by RP hplc indicating a peak purity of 96.7%, monitored by on-line UV detection (at 254 nm) and gave the expected (M+H)+ ion at 240 mass units by on-line electrospray ionisation mass spectrometry (EI-MS).
molecule,measurement,setting,value
O=[13C](O)c1ccccc1 [(^13C-carboxyl) Benzoic acid],major metabolite in urine,"[1]; rat urine after iv 10 mg/Kg at 0 and 2 hrs, isolated by SPE and RP-hplc",(^13C-carboxy) hippuric acid
(U-^13C)Paracetamol,metabolite identified in bile,[2],Paracetamol sulphate
(^13C-carboxyl) hippuric acid,level measured in urine,"[1]; rat urine, 0-2 hr collection, after iv (13C-carboxyl) benzoic acid 10 mg/Kg",approximately 5 mg/ml
